Assay results: US12473324B2, “Triazine-based amphiphilic compound and use thereof” (INDUSTRY-UNIVERSITY COOPERATION FOUNDATION HANYANG …, priority 2019, dated 2025)

Experiments:
[1] = test system: leucine transporter (LeuT); test: LeuT structural stability: [3H]-Leu binding by scintillation proximity assay (SPA); format: biochemical, Aquifex aeolicus; conditions: CMC+0.04 wt % or CMC+0.2 wt %, room temperature, 13-day incubation, [3H]-Leu SPA
Method: Experiments were performed to measure the structural stability of the LeuT protein by TSMs, TTGs and TEMs. Each amphiphilic compound was used at a concentration of (a) CMC+0.04 wt % or (b) CMC+0.2 wt %, and the substrate binding properties of LeuT were measured using [^3H]-Leu via scintillation proximity assay (SPA). The measurement was performed at regular intervals over the course of a 13-day and 12-day incubation at room temperature, respectively.
Specifically, a wild-type leucine transporter (LeuT) derived from the thermophilic bacterium Aquifex aeolicus was purified by a previously described method (Nature 1998, 392, 353-358 by G. Deckert et al.). LeuT was expressed in E. coli C41 (DE3) transformed with pET16b encoding the C-terminal 8×His-tagged transporter (expression plasmids were provided from Dr E. Gouaux, Vollum Institute, Portland, Oregon, USA). In summary, after a bacterial membrane was isolated and solubilized in 1 wt % DDM, the protein was bound to Ni^2+-NTA resin (Life Technologies, Denmark), and eluted in 20 mM Tris-HCl (pH 8.0), 1 mM NaCl, 199 mM KCl, 0.05% (w/v) DDM and 300 mM imidazole. Then, the purified LeuT (0.5 mg/ml) was diluted with buffers supplemented with TSMs, TTGs, TEMs or DDM at a final concentration of CMC+0.04% (w/v) or CMC+0.2% (w/v) except for DDM and imidazole in the equivalent buffer described above. Protein samples were incubated at room temperature for 13 days, centrifuged at a specified time, and protein properties were confirmed by measuring [^3H]-Leucine binding ability using SPA. SPA was performed with 5 μL of each protein sample in a buffer containing 450 mM NaCl and each of TSMs and TEMs (or DDM). The SPA reaction was performed in the presence of 20 nM [^3H]-Leucine and 1.25 mg/ml copper chelate (His-Tag) YSi beads (PerkinElmer, Denmark). Overall [^3H]-Leucine coupling to each sample was measured using a MicroBeta liquid scintillation counter (Perkin Elmer).

[2] = Solubility of detergent (Table 1); format: physicochemical
[3] = Critical micelle concentration (CMC) by fluorescent dye diphenylhexatriene (DPH); format: physicochemical; conditions: DPH fluorescence
Method: A method of measuring the CMC is not particularly limited, but a method widely known in the art may be used, and for example, the CMC may be measured by a fluorescent staining method using diphenylhexatriene (DPH).
(§1) Specifically, the critical micelle concentrations (CMCs) were measured using a fluorescent dye, diphenylhexatriene (DPH), and the hydrodynamic radii (Rh) of micelles formed by each preparation (1.0 wt %) were determined by a dynamic light scattering (DLS) experiment. The measured results are shown in Table 1 compared to DDM which is an existing amphiphilic molecule (detergent).

[4] = Hydrodynamic radius (Rh) of micelles by dynamic light scattering (DLS); format: physicochemical; conditions: 1.0 wt % detergent
Method: A method of measuring the radius of micelle is not particularly limited, but a method widely known in the art may be used, and for example, the radius of micelle may be measured using a dynamic light scattering (DLS) experiment.
as §1

| SMILES | LeuT substrate binding properties over incubation [1] | solubility [2] [%] | CMC [3] [mM] | Rh (nm) [4] [nm] |
| --- | --- | --- | --- | --- |
| CCCCCCCCCCSc1nc(NC(CO[C@@H]2O[C@H](CO)[C@@H](O[C@H]3O[C@H](CO)[C@@H](O)[C@H](O)[C@H]3O)[C@H](O)[C@H]2O)CO[C@@H]2O[C@H](CO)[C@@H](O[C@H]3O[C@H](CO)[C@@H](O)[C@H](O)[C@H]3O)[C@H](O)[C@H]2O)nc(SCCCCCCCCCC)n1 [TSM-T10] | best substrate binding activity | ~5 | ~0.003 | 38.2 ± 1.8 |
| CCCCCCCCCCCSc1nc(NC(CO[C@@H]2O[C@H](CO)[C@@H](O[C@H]3O[C@H](CO)[C@@H](O)[C@H](O)[C@H]3O)[C@H](O)[C@H]2O)CO[C@@H]2O[C@H](CO)[C@@H](O[C@H]3O[C@H](CO)[C@@H](O)[C@H](O)[C@H]3O)[C@H](O)[C@H]2O)nc(SCCCCCCCCCCC)n1 [TSM-T11] | – | ~1 | ~0.001 | 94.8 ± 45 |
| CCCCCCCCCOc1nc(NC(CO[C@@H]2O[C@H](CO)[C@@H](O[C@H]3O[C@H](CO)[C@@H](O)[C@H](O)[C@H]3O)[C@H](O)[C@H]2O)CO[C@@H]2O[C@H](CO)[C@@H](O[C@H]3O[C@H](CO)[C@@H](O)[C@H](O)[C@H]3O)[C@H](O)[C@H]2O)nc(OCCCCCCCCC)n1 [TSM-E9] | – | ~10 | ~0.01 | 4.0 ± 0.1 |
| CCCCCCCCCNc1nc(NCCCCCCCCC)nc(NC(CO[C@@H]2O[C@H](CO)[C@@H](O)[C@H](O)[C@H]2O)(CO[C@@H]2O[C@H](CO)[C@@H](O)[C@H](O)[C@H]2O)CO[C@@H]2O[C@H](CO)[C@@H](O)[C@H](O)[C@H]2O)n1 [TTG-A9] | – | ~10 | ~0.5 | 2.2 ± 0.20 |
| CCCCCCCCCCNc1nc(NCCCCCCCCCC)nc(NC(CO[C@@H]2O[C@H](CO)[C@@H](O)[C@H](O)[C@H]2O)(CO[C@@H]2O[C@H](CO)[C@@H](O)[C@H](O)[C@H]2O)CO[C@@H]2O[C@H](CO)[C@@H](O)[C@H](O)[C@H]2O)n1 [TTG-A10] | – | ~10 | ~0.3 | 2.3 ± 0.14 |
| CCCCCCCCCCCCCCNc1nc(NCCCCCCCCCCCCCC)nc(NC(CO[C@@H]2O[C@H](CO)[C@@H](O)[C@H](O)[C@H]2O)(CO[C@@H]2O[C@H](CO)[C@@H](O)[C@H](O)[C@H]2O)CO[C@@H]2O[C@H](CO)[C@@H](O)[C@H](O)[C@H]2O)n1 [TTG-A14] | – | ~1 | ~0.008 | 3.2 ± 0.05 |
| CCCCCCCCCCCNc1nc(NCCCCCCCCCCC)nc(NC(CO[C@@H]2O[C@H](CO)[C@@H](O)[C@H](O)[C@H]2O)(CO[C@@H]2O[C@H](CO)[C@@H](O)[C@H](O)[C@H]2O)CO[C@@H]2O[C@H](CO)[C@@H](O)[C@H](O)[C@H]2O)n1 [TTG-A11] | – | ~10 | ~0.2 | 2.4 ± 0.11 |
| CCCCCCCCCCSc1nc(SCCCCCCCCCC)nc(N(CCO[C@@H]2O[C@H](CO)[C@@H](O[C@H]3O[C@H](CO)[C@@H](O)[C@H](O)[C@H]3O)[C@H](O)[C@H]2O)CCO[C@@H]2O[C@H](CO)[C@@H](O[C@H]3O[C@H](CO)[C@@H](O)[C@H](O)[C@H]3O)[C@H](O)[C@H]2O)n1 [TEM-T10] | best substrate binding activity | ~5 | ~0.0025 | 4.3 ± 0.0 |
| CCCCCCCCCCCCNc1nc(NCCCCCCCCCCCC)nc(NC(CO[C@@H]2O[C@H](CO)[C@@H](O)[C@H](O)[C@H]2O)(CO[C@@H]2O[C@H](CO)[C@@H](O)[C@H](O)[C@H]2O)CO[C@@H]2O[C@H](CO)[C@@H](O)[C@H](O)[C@H]2O)n1 [TTG-A12] | – | ~5 | ~0.04 | 2.5 ± 0.07 |
| CCCCCCCCSc1nc(NC(CO[C@@H]2O[C@H](CO)[C@@H](O)[C@H](O)[C@H]2O)(CO[C@@H]2O[C@H](CO)[C@@H](O)[C@H](O)[C@H]2O)CO[C@@H]2O[C@H](CO)[C@@H](O)[C@H](O)[C@H]2O)nc(SCCCCCCCC)n1 [TTG-T8] | – | ~10 | ~0.015 | 2.9 ± 0.09 |

The remaining lines, values ahead:

| LeuT substrate binding properties over incubation [1] | solubility [2] [%] | CMC [3] [mM] | Rh (nm) [4] [nm] | SMILES |
| --- | --- | --- | --- | --- |
| – | ~1 | ~0.001 | 25.2 ± 1.2 | CCCCCCCCCCCOc1nc(OCCCCCCCCCCC)nc(N(CCO[C@@H]2O[C@H](CO)[C@@H](O[C@H]3O[C@H](CO)[C@@H](O)[C@H](O)[C@H]3O)[C@H](O)[C@H]2O)CCO[C@@H]2O[C@H](CO)[C@@H](O[C@H]3O[C@H](CO)[C@@H](O)[C@H](O)[C@H]3O)[C@H](O)[C@H]2O)n1 [TEM-E11] |
| – | ~10 | ~0.02 | 2.8 ± 0.16 | CCCCCCCSc1nc(NC(CO[C@@H]2O[C@H](CO)[C@@H](O)[C@H](O)[C@H]2O)(CO[C@@H]2O[C@H](CO)[C@@H](O)[C@H](O)[C@H]2O)CO[C@@H]2O[C@H](CO)[C@@H](O)[C@H](O)[C@H]2O)nc(SCCCCCCC)n1 [TTG-T7] |
| – | ~10 | ~0.04 | 3.4 ± 0.1 | CCCCCCCOc1nc(NC(CO[C@@H]2O[C@H](CO)[C@@H](O[C@H]3O[C@H](CO)[C@@H](O)[C@H](O)[C@H]3O)[C@H](O)[C@H]2O)CO[C@@H]2O[C@H](CO)[C@@H](O[C@H]3O[C@H](CO)[C@@H](O)[C@H](O)[C@H]3O)[C@H](O)[C@H]2O)nc(OCCCCCCC)n1 [TSM-E7] |
| – | ~1 | ~0.001 | 31.8 ± 0.3 | CCCCCCCCCCCSc1nc(SCCCCCCCCCCC)nc(N(CCO[C@@H]2O[C@H](CO)[C@@H](O[C@H]3O[C@H](CO)[C@@H](O)[C@H](O)[C@H]3O)[C@H](O)[C@H]2O)CCO[C@@H]2O[C@H](CO)[C@@H](O[C@H]3O[C@H](CO)[C@@H](O)[C@H](O)[C@H]3O)[C@H](O)[C@H]2O)n1 [TEM-T11] |
| – | ~10 | ~0.6 | 2.1 ± 0.56 | CCCCCCCCNc1nc(NCCCCCCCC)nc(NC(CO[C@@H]2O[C@H](CO)[C@@H](O)[C@H](O)[C@H]2O)(CO[C@@H]2O[C@H](CO)[C@@H](O)[C@H](O)[C@H]2O)CO[C@@H]2O[C@H](CO)[C@@H](O)[C@H](O)[C@H]2O)n1 [TTG-A8] |
| best substrate binding activity | ~10 | ~0.02 | 3.6 ± 0.1 | CCCCCCCCOc1nc(NC(CO[C@@H]2O[C@H](CO)[C@@H](O[C@H]3O[C@H](CO)[C@@H](O)[C@H](O)[C@H]3O)[C@H](O)[C@H]2O)CO[C@@H]2O[C@H](CO)[C@@H](O[C@H]3O[C@H](CO)[C@@H](O)[C@H](O)[C@H]3O)[C@H](O)[C@H]2O)nc(OCCCCCCCC)n1 [TSM-E8] |
